# Earlier results, collected in US20040254092A1 (priority 2003, published 2004).
# Legend:
# [1] = tested on: SA-H and human-wheel virus type 2
# [2] = tested on: Type-B hepatitis surface antigen (HbsAg)
# [3] = tested on: Poliomyelitis virus type I (PVI); details: ozone density 0.13 mg/L, time 30 seconds
# [4] = tested on: Mycoplasma, Chlamydia, and other pathogens
smiles,measurement,setting,value
"O=[O+][O-] [Ozone, ozone]",Sterilizing efficiency,[1],99.60%
same,Sterilizing efficiency,[2],99.99%
same,Sterilizing efficiency,Coronaviridae,100%
same,Sterilizing efficiency,Type-A flu virus,99%
same,Sterilizing efficiency,HIV,100%
same,Sterilizing efficiency,[3],100%
same,Sterilizing efficiency,[4],99.85%
same,Sterilizing efficiency,Coliphage ms2,98%
